Earlier results in patent US20210360917A1, “CUTICLE SUPPLEMENT FOR PLANT PRODUCTION” (OREGON STATE UNIVERSITY, priority 2018, published 2021).

System: spotted wing Drosophila
Settings: chemical alternative, source not given

CCOC(=O)CC(SP(=S)(OC)OC)C(=O)OCC (stereo not shown) [malathion]
reduction of egg laying: about 50%
